Holding throughout (experiment): relative viability (nuclei count vs DMSO), 5 days (fraction); higher = more cells survive
Compound in the test “Etoposide + Trametinib”: COc1cc([C@@H]2c3cc4c(cc3[C@@H](O[C@@H]3O[C@@H]5CO[C@@H](C)O[C@H]5[C@H](O)[C@H]3O)[C@H]3COC(=O)[C@H]23)OCO4)cc(OC)c1O [Etoposide] + CC(=O)Nc1cccc(-n2c(=O)n(C3CC3)c(=O)c3c(Nc4ccc(I)cc4F)n(C)c(=O)c(C)c32)c1 [Trametinib] (partner 0.02 µM)
The method, boiled down: (§1)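 Lung cancer cell lines were pin-tool dosed in 1536-well plates on the day after seeding, with either a lone drug or a fixed anchor-drug dose plus five library-drug doses (not always all listed) in √10 steps. Nuclei were counted on 4× images after 5 days. Relative viability is the ratio of treated-well to vehicle-well nuclei counts, with each value a median of duplicate plates.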

Compound in the test “Etoposide + Decitabine”: COc1cc([C@@H]2c3cc4c(cc3[C@@H](O[C@@H]3O[C@@H]5CO[C@@H](C)O[C@H]5[C@H](O)[C@H]3O)[C@H]3COC(=O)[C@H]23)OCO4)cc(OC)c1O [Etoposide] + Nc1ncn([C@H]2C[C@H](O)[C@@H](CO)O2)c(=O)n1 [Decitabine] (partner 2 µM)
Summed up:
as §1

Compound in the test “Bleomycin + Luminespib”: CC1=C(N=C(N=C1N)[C@H](CC(=O)N)NC[C@@H](C(=O)N)N)C(=O)N[C@@H]([C@H](C2=CN=CN2)OC3C(C(C(C(O3)CO)O)O)OC4C(C(C(C(O4)CO)O)OC(=O)N)O)C(=O)N[C@H](C)[C@H]([C@H](C)C(=O)N[C@@H]([C@@H](C)O)C(=O)NCCC5=NC(=CS5)C6=NC(=CS6)C(=O)NCCC[S+](C)C)O [Bleomycin] + CCNC(=O)c1noc(-c2cc(C(C)C)c(O)cc2O)c1-c1ccc(CN2CCOCC2)cc1 [Luminespib] (partner 0.01 µM)
The note with it: main component drawn. Summed up: as §1

Compound in the test “Etoposide + Linsitinib”: COc1cc([C@@H]2c3cc4c(cc3[C@@H](O[C@@H]3O[C@@H]5CO[C@@H](C)O[C@H]5[C@H](O)[C@H]3O)[C@H]3COC(=O)[C@H]23)OCO4)cc(OC)c1O [Etoposide] + C[C@]1(O)C[C@@H](c2nc(-c3ccc4ccc(-c5ccccc5)nc4c3)c3c(N)nccn32)C1 [Linsitinib] (partner 1 µM)
The method, boiled down:
as §1

In the supplement of paper PMC10307832 one finds relative viability data, which are given here for 7 cell lines.

Turning to NCI-H3122, the relative viability turned out to be 0.23 in the test with Etoposide + Trametinib (first compound 0.01 µM); 0.223 in the test with Etoposide + Trametinib (first compound 0.03162 µM); 0.153 with Etoposide + Trametinib (first compound 0.1 µM); 0.23 in the test with Etoposide + Trametinib (first compound 0.3162 µM); 0.215 in the test with Etoposide + Trametinib (first compound 1 µM); 0.465 in the test with Etoposide + Decitabine (first compound 0.01 µM). Also, the relative viability with Etoposide + Decitabine (first compound 0.03162 µM) was 0.536; with Etoposide + Decitabine (first compound 0.1 µM) it was 0.384; with Etoposide + Decitabine (first compound 0.3162 µM) it was 0.385; with Etoposide + Decitabine (first compound 1 µM), 0.249; with Bleomycin + Luminespib (first compound 0.01 µM) it was 0.103; in the test with Bleomycin + Luminespib (first compound 0.03162 µM) it was 0.145. In addition, the relative viability in the test with Bleomycin + Luminespib (first compound 0.1 µM) came to 0.101; with Bleomycin + Luminespib (first compound 0.3162 µM), 0.111; in the test with Bleomycin + Luminespib (first compound 1 µM), 0.0599; in the test with Etoposide + Linsitinib (first compound 0.01 µM) it was 1.04; in the test with Etoposide + Linsitinib (first compound 0.03162 µM) it was 1.05; with Etoposide + Linsitinib (first compound 0.1 µM), 1.03. Further, the relative viability with Etoposide + Linsitinib (first compound 0.3162 µM) came to 0.88; with Etoposide + Linsitinib (first compound 1 µM) it was 0.449.

PC-3 [JPC-3]: the relative viability was 0.693 in the test with Etoposide + Trametinib (first compound 0.01 µM); 0.756 with Etoposide + Trametinib (first compound 0.03162 µM); 0.633 with Etoposide + Trametinib (first compound 0.1 µM); 0.749 with Etoposide + Trametinib (first compound 0.3162 µM); 0.671 in the test with Etoposide + Trametinib (first compound 1 µM); 0.813 in the test with Etoposide + Decitabine (first compound 0.01 µM). Moreover, the relative viability was determined as 0.921 with Etoposide + Decitabine (first compound 0.03162 µM); 0.836 in the test with Etoposide + Decitabine (first compound 0.1 µM); 0.737 in the test with Etoposide + Decitabine (first compound 0.3162 µM); 0.692 with Etoposide + Decitabine (first compound 1 µM); 0.685 with Bleomycin + Luminespib (first compound 0.01 µM); 0.665 with Bleomycin + Luminespib (first compound 0.03162 µM). In addition, the relative viability is 0.621 in the test with Bleomycin + Luminespib (first compound 0.1 µM); 0.55 in the test with Bleomycin + Luminespib (first compound 0.3162 µM); 0.418 in the test with Bleomycin + Luminespib (first compound 1 µM); 0.965 with Etoposide + Linsitinib (first compound 0.01 µM); 0.991 in the test with Etoposide + Linsitinib (first compound 0.03162 µM); 0.952 in the test with Etoposide + Linsitinib (first compound 0.1 µM). The relative viability was found to be 0.933 with Etoposide + Linsitinib (first compound 0.3162 µM) and 0.84 with Etoposide + Linsitinib (first compound 1 µM).

As for PC-14, the relative viability in the test with Etoposide + Trametinib (first compound 0.01 µM) came to 0.715; with Etoposide + Trametinib (first compound 0.03162 µM), 0.678; with Etoposide + Trametinib (first compound 0.1 µM), 0.798; with Etoposide + Trametinib (first compound 0.3162 µM), 0.491; in the test with Etoposide + Trametinib (first compound 1 µM), 0.229; in the test with Etoposide + Decitabine (first compound 0.01 µM), 0.242. Further, the relative viability with Etoposide + Decitabine (first compound 0.03162 µM) is 0.248; with Etoposide + Decitabine (first compound 0.1 µM) it was 0.258; with Etoposide + Decitabine (first compound 0.3162 µM), 0.182; with Etoposide + Decitabine (first compound 1 µM), 0.103; with Bleomycin + Luminespib (first compound 0.01 µM), 0.148; in the test with Bleomycin + Luminespib (first compound 0.03162 µM), 0.144. Further, the relative viability with Bleomycin + Luminespib (first compound 0.1 µM) was 0.121; in the test with Bleomycin + Luminespib (first compound 0.3162 µM), 0.116; in the test with Bleomycin + Luminespib (first compound 1 µM), 0.124; in the test with Etoposide + Linsitinib (first compound 0.01 µM), 1.01; with Etoposide + Linsitinib (first compound 0.03162 µM), 1.05; in the test with Etoposide + Linsitinib (first compound 0.1 µM), 0.956. Also, the figures for the relative viability with Etoposide + Linsitinib (first compound 0.3162 µM) and in the test with Etoposide + Linsitinib (first compound 1 µM) were 0.838 and 0.507, respectively.

For the cell line RERF-LC-KJ, the relative viability in the test with Etoposide + Trametinib (first compound 0.01 µM) worked out at 0.7; with Etoposide + Trametinib (first compound 0.03162 µM), 0.899; in the test with Etoposide + Trametinib (first compound 0.1 µM), 0.822; in the test with Etoposide + Trametinib (first compound 0.3162 µM), 0.835; with Etoposide + Trametinib (first compound 1 µM), 0.6; with Etoposide + Decitabine (first compound 0.01 µM) it was 0.643. The relative viability in the test with Etoposide + Decitabine (first compound 0.03162 µM) is 0.638; with Etoposide + Decitabine (first compound 0.1 µM), 0.54; with Etoposide + Decitabine (first compound 0.3162 µM), 0.579; in the test with Etoposide + Decitabine (first compound 1 µM) it was 0.335; with Bleomycin + Luminespib (first compound 0.01 µM) it was 0.555; in the test with Bleomycin + Luminespib (first compound 0.03162 µM), 0.479. In addition, the relative viability with Bleomycin + Luminespib (first compound 0.1 µM) was 0.461; in the test with Bleomycin + Luminespib (first compound 0.3162 µM) it was 0.307; with Bleomycin + Luminespib (first compound 1 µM) it was 0.287; in the test with Etoposide + Linsitinib (first compound 0.01 µM), 0.84; in the test with Etoposide + Linsitinib (first compound 0.03162 µM) it was 0.895; with Etoposide + Linsitinib (first compound 0.1 µM), 0.866. For the same cell line, the relative viability with Etoposide + Linsitinib (first compound 0.3162 µM) is 0.769; in the test with Etoposide + Linsitinib (first compound 1 µM), 0.562.

With SK-LU-1, the relative viability with Etoposide + Trametinib (first compound 0.01 µM) was determined as 0.446; with Etoposide + Trametinib (first compound 0.03162 µM), 0.411; with Etoposide + Trametinib (first compound 0.1 µM) it was 0.394; in the test with Etoposide + Trametinib (first compound 0.3162 µM), 0.258; with Etoposide + Trametinib (first compound 1 µM), 0.236; with Etoposide + Decitabine (first compound 0.01 µM), 0.561. Further, the relative viability turned out to be 0.604 in the test with Etoposide + Decitabine (first compound 0.03162 µM); 0.513 with Etoposide + Decitabine (first compound 0.1 µM); 0.306 in the test with Etoposide + Decitabine (first compound 0.3162 µM); 0.252 with Etoposide + Decitabine (first compound 1 µM); 0.197 with Bleomycin + Luminespib (first compound 0.01 µM); 0.202 in the test with Bleomycin + Luminespib (first compound 0.03162 µM). Besides, the relative viability turned out to be 0.272 with Bleomycin + Luminespib (first compound 0.1 µM); 0.216 with Bleomycin + Luminespib (first compound 0.3162 µM); 0.191 with Bleomycin + Luminespib (first compound 1 µM); 1.03 with Etoposide + Linsitinib (first compound 0.01 µM); 1.03 with Etoposide + Linsitinib (first compound 0.03162 µM); 0.829 in the test with Etoposide + Linsitinib (first compound 0.1 µM). For the same cell line, the relative viability with Etoposide + Linsitinib (first compound 0.3162 µM) worked out at 0.401; with Etoposide + Linsitinib (first compound 1 µM) it was 0.281.

As to SK-MES-1, the relative viability with Etoposide + Trametinib (first compound 0.01 µM) was 0.5; in the test with Etoposide + Trametinib (first compound 0.03162 µM), 0.518; in the test with Etoposide + Trametinib (first compound 0.1 µM), 0.594; with Etoposide + Trametinib (first compound 0.3162 µM) it was 0.46; in the test with Etoposide + Trametinib (first compound 1 µM), 0.277; with Etoposide + Decitabine (first compound 0.01 µM), 0.344. Also, the relative viability in the test with Etoposide + Decitabine (first compound 0.03162 µM) worked out at 0.481; with Etoposide + Decitabine (first compound 0.1 µM), 0.35; with Etoposide + Decitabine (first compound 0.3162 µM) it was 0.238; in the test with Etoposide + Decitabine (first compound 1 µM), 0.199; in the test with Bleomycin + Luminespib (first compound 0.01 µM) it was 0.701; with Bleomycin + Luminespib (first compound 0.03162 µM), 0.641. The relative viability came out at 0.641 with Bleomycin + Luminespib (first compound 0.1 µM); 0.244 in the test with Bleomycin + Luminespib (first compound 0.3162 µM); 0.202 with Bleomycin + Luminespib (first compound 1 µM); 1.05 in the test with Etoposide + Linsitinib (first compound 0.01 µM); 1.07 with Etoposide + Linsitinib (first compound 0.03162 µM); 0.862 in the test with Etoposide + Linsitinib (first compound 0.1 µM). The results for the relative viability with Etoposide + Linsitinib (first compound 0.3162 µM) and with Etoposide + Linsitinib (first compound 1 µM) were 0.612 and 0.262, respectively.

Turning to SW 1573, the relative viability with Etoposide + Trametinib (first compound 0.01 µM) turned out to be 0.609; in the test with Etoposide + Trametinib (first compound 0.03162 µM) it was 0.548; with Etoposide + Trametinib (first compound 0.1 µM) it was 0.436; with Etoposide + Trametinib (first compound 0.3162 µM), 0.219; in the test with Etoposide + Trametinib (first compound 1 µM), 0.14; in the test with Etoposide + Decitabine (first compound 0.01 µM), 0.434. Also, the relative viability with Etoposide + Decitabine (first compound 0.03162 µM) was 0.5; with Etoposide + Decitabine (first compound 0.1 µM), 0.243; in the test with Etoposide + Decitabine (first compound 0.3162 µM), 0.159; in the test with Etoposide + Decitabine (first compound 1 µM), 0.0836; with Bleomycin + Luminespib (first compound 0.01 µM), 0.508; with Bleomycin + Luminespib (first compound 0.03162 µM), 0.616. For the same cell line, the relative viability with Bleomycin + Luminespib (first compound 0.1 µM) came to 0.118; in the test with Bleomycin + Luminespib (first compound 0.3162 µM), 0.174; in the test with Bleomycin + Luminespib (first compound 1 µM), 0.116; with Etoposide + Linsitinib (first compound 0.01 µM), 0.884; with Etoposide + Linsitinib (first compound 0.03162 µM), 0.76; with Etoposide + Linsitinib (first compound 0.1 µM), 0.646. The relative viability in the test with Etoposide + Linsitinib (first compound 0.3162 µM) was determined as 0.327; with Etoposide + Linsitinib (first compound 1 µM) it was 0.277.
